Laboratory results from patent publication US20040258754A1, “Compositions for oral administration of camptothecin and its analogs” (priority 2003, published 2004).
≈ marks a conversion by molar mass, not a printed value. Read-outs that look alike come from different tables or passages of the source.

Assays:
[1] = Oral administration of topotecan in capsules (control, microgel, microgel + L92); assay type: in vivo, rats
Procedure: (§1) About 30 mg of topotecan were weighed and mixed with 100 mg of the microgel. The mixture was dissolved in 5 mL of 70% ethanol and incubated for 16 hours at room temperature. Then, the half volume of solvent was evaporated in a stream of nitrogen. About 10 mL of 3% acetic acid were added to the mixture. The final mixture was lyophilized until dryness and loaded into the gelatin capsules.
About 30 mg of topotecan were weighed and loaded in gelatin capsules (3.75 mg/capsule).
The control and formulated topotecan in capsules were orally administered in normal rats at the dose of 15 mg/kg. The blood sample collection, extraction and HPLC analysis were the same as described in example 8.
as §1, with “microgel EGDMA and 30 mg of L92.” for “the microgel.”, “capsules. The topotecan formulation in capsules was orally administered in normal rats at the dose of 15 mg/kg. The blood sample collection, the extraction and HPLC analysis procedures were the same as in example 8.” for “capsules.”

[2] = Oral bioavailability of Pluronic P85 formulated and unformulated topotecan (gavage); assay type: in vivo; details: normal rats, oral gavage of solution, 15 mg/kg, plasma
Procedure: About 15 mg of topotecan were weighed and dissolved in 5 mL of tap water for control, and about 15 mg of topotecan were dissolved in 5 mL of 1% P85 solution in tap water for formulation;
Both topotecan dosing solutions were orally administered by gavage in normal rats at a dose of 15 mg/kg. Three animals were used per each group.
(§2) After various time intervals (15, 30 min, 1, 3, 6, and 10 hrs) post-injection, the blood samples were collected.
The rats were anesthetized by general inhalation of Isoflurane (Bimeta-MTC, Animal Health Inc. Cambridge, ON, Canada).
The plasma sample collection, extraction and HPLC analysis were carried out with the same matter as is described in example 8.
The topotecan lactone and topotecan carboxylate concentrations were calculated from the area under the peak (AUP) by using a calibration curve. The areas under the curves (AUC) were calculated by trapezoidal rule.

[3] = Stability of topotecan lactone in Pluronic P85 formulation (HPLC); assay type: physicochemical; details: 37° C., 0.3 mg/mL drug in PBS
Procedure: The formulation was prepared by mixing the stock solution containing 6 mg/mL of topotecan in 0.1% aqueous acetic acid with the 2.05% P85 solutions in PBS 1:20 (v/v), to obtain final compositions containing 0.3 mg/mL drug in 1% P85. The control formulation was prepared by simple dilution of topotecan stock solution with PBS 1:20 (v/v). The initial time of incubation (O hour) is the time of mixing of the respective stock solutions. The samples were incubated at 37° C. in thermostat. After various time intervals (1, 2, 3, 6, and 10 hrs) […], a sample of formulation was taken, diluted 1000 times with the HPLC mobile phase, and injected into HPLC. The HPLC conditions were following:
(§3) C18 reversed phase column 250×4.6 mm, Phenomenex C18 (2) Luna, 5 μm, column temperature 40° C., flow rate 1 mL/min, injection volume 20 μL, fluorescence detection at wavelengths λexcitation=381 nm, λemission=525 nm, mobile phase 94% of 2% triethylamine acetate pH 5.5/6% acetonitrile, run time 7 min

[4] = Plasma pharmacokinetics of topotecan upon i.v. administration; assay type: in vivo; details: normal rats, dose of 15 mg/mL
Procedure: About 28 mg of topotecan were weighed and dissolved in 7 mL of isotonic solution. Topotecan was i.v. administered in normal rats at a dose of […].
as §2
The blood samples were collected from the jugular vein with the tube heparinized and kept immediately in ice for 5 to 10 min. Blood was immediately centrifuged, and plasma was separated. The plasma samples were immediately frozen in dry ice and stored at −80° C. until further use.
The aliquots (100 μL) of plasma samples were extracted with 400 μL of cold methanol. The supernatant was separated by centrifugation at 10000 RPM for 10 minutes and kept at −80° C. before HPLC analysis. The HPLC conditions were the following:
as §3
The topotecan lactone and topotecan carboxilate concentrations were calculated from the area under the peak (AUP) by using a calibration curve. The areas under the curves (AUC) were calculated by trapezoidal rule.

[5] = Partitioning of topotecan into Pluronic F127 micelles (fluorescence); assay type: physicochemical; details: Pluronic F127 micelles vs aqueous phase, carrier 0.003% to 10%, topotecan 0.010 mM, 2 hrs at 37° C.
Excerpt: Partitioning coefficient P describes the tendency of molecules of topotecan to stay inside micelles formed by the carrier: P=[x]m/[x]w, where [x]m is the actual concentration of topotecan inside micelles, [x]w is the actual concentration of topotecan in aqueous phase. The carrier investigated in this example is pluronic F127 (BASF). Partitioning coefficient was estimated using the fluorescence dependence on the concentration of the carrier (Kabanov A. et al. (1995), Macromolecules 28, 2303-2314), by fitting the measured fluorescence of topotecan to the equation:
(Imax−I0)/(−I0)−1=1/(θP)−1/P
θ=0.01v([carrier]−CMCcarrier), volume portion of the micellar phase
CMCcarrier=0.02%—critical micelle concentration for Pluronic 127
v—partial specific volume of micelles, approximately v=0.8
[…]. The plate was dried in vacuum. Solutions of the carrier were applied to wells, 300 microliter to each well. The concentration of carrier in solutions varied from 0.003% to 10%. The final concentration of topotecan was 0.010 mM. The plate was incubated 2 hrs at 37° C., and the fluorescence of the solution (excitation 360 nm, emission 530 nm) was measured using plate reader FL600 (BioTek).

[6] = Solubility of topotecan in formulations with Pluronic P85; assay type: physicochemical; details: thermodynamic from solid, read-out: Topotecan concentration (solubility)
Procedure: Calibration. Fluorescence of 0.300 mL samples of topotecan solutions in methanol containing between 0.00006 and 0.001 mg/mL, in triplicates on Helma Quarz plate, was measured using Bio-Tek FL600 fluorescence plate reader with excitation filter wavelength/bandwidth 360/40 nm and emission filter 530/25 nm, sensitivity 70. The average fluorescence was fitted to a linear equation and gave:
where C=topotecan concentration [mg/mL].
Solubility. 1 mg topotecan samples, in triplicates, and 1 mL of the respective buffer or carrier solution, were incubated at room temperature with shaking for 1 hour. The samples were then filtered through Acrodisc CR, PTFE Syringe filter, 4 mm diameter, 0.45 μm pore size Gelman part No. 4472. The filtrate was diluted 100 times with methanol, and the final concentration of topotecan was determined by fluorescence measurement using the above-described calibration.

[7] = normal rats, oral gelatin capsules, 15 mg/kg, plasma

AUC Ratio Oral Vs I.V. ([1]; Lac/Car AUC ratio, oral capsules 15 mg/kg vs i.v., rats): 2.0 | Cmax Ratio Oral Vs I.V. ([1]; Lac/Car Cmax ratio, oral capsules 15 mg/kg vs i.v., rats): 2.0 | Ratio AUC0-10 h Lac/Car [1, 7]: 0.6 | Ratio Cmax Lac/Car [1, 7]: 0.8 | AUC(0-t) ([1]; rat, normal rats, oral gelatin capsules, 15 mg/kg, plasma, read-out: AUC0-10 h, topotecan Lactone): 52.8 ng·h/mL | Cmax ([1]; rat, normal rats, oral gelatin capsules, 15 mg/kg, plasma, read-out: Cmax, topotecan Lactone): 9.8 ng/mL | Ratio AUC0-10 h Lac/Car [2]: 1.2 | Ratio Cmax Lac/Car [2]: 1.2 | AUC(0-t) ([2]; rat, read-out: AUC0-10 h, topotecan Lactone): 80.5 ng·h/mL | Cmax ([2]; rat, read-out: Cmax, topotecan Lactone): 20.3 ng/mL | topotecan lactone stability ([3]; 0 hour): 100.0 % of 0 h | topotecan lactone stability ([3]; 1 hour): 76.0 % of 0 h | topotecan lactone stability ([3]; 2 hours): 56.4 % of 0 h | topotecan lactone stability ([3]; 3 hours): 49.7 % of 0 h | topotecan lactone stability ([3]; 6 hours): 45.9 % of 0 h | topotecan lactone stability ([3]; 10 hours): 44.8 % of 0 h | Ratio AUC0-10 h Lac/Car [4]: 0.3 | Ratio Cmax Lac/Car [4]: 0.4 | AUC(0-t) ([4]; rat, iv, read-out: AUC0-10 h, topotecan Lactone): 454 ng·h/mL | Cmax ([4]; rat, iv, read-out: Cmax, topotecan Lactone): 321 ng/mL | partitioning coefficient P=[x]m/[x]w [5]: about 1 | solubility at 1 h ([6]; 1% Pluronic P85 in PBS, aqueous with cosolvent or surfactant or cyclodextrin, P85 1% in PBS pH 7.2, room temperature): 95 ± 5 µg/mL (≈ 225 µM) | solubility at 1 h ([6]; 3% Pluronic P85 in PBS, aqueous with cosolvent or surfactant or cyclodextrin, P85 3% in PBS pH 7.2, room temperature): 105 ± 5 µg/mL (≈ 249 µM) | solubility at 1 h ([6]; aqueous buffer, PBS pH 7.2, room temperature): 62 ± 5 µg/mL (≈ 147 µM)
SMILES: CC[C@@]1(O)C(=O)OCc2c1cc1n(c2=O)Cc2cc3c(CN(C)C)c(O)ccc3nc2-1 [Topotecan, topotecan]
